According to US20230212202A1, “TREATMENT OF MGMT DEFICIENT CANCER WITH 2-FLUOROETHYL-SUBSTITUTED NITROSOUREAS AND OTHER COMPOUNDS” (YALE UNIVERSITY, priority 2021, published 2023):

Experiments:
[1] = tested on: LN229 MGMT-/MMR+ and MGMT-/MSH6- flank tumors; assay: Flank tumor third study: large tumors; type: in vivo, mouse; settings: 25 mg/kg PO MWF × 3 weeks, ~350-400 mm^3 tumors
Procedure: The third study involved MGMT-/MMR+ and MGMT-/MSH6- (shMSH6) LN229 cells. Mice tumors were allowed to grow to a larger average starting volume of ~350 mm^3 before they were randomized and administered either KL-50 (4a; 25 mg/kg MWF × 3 weeks) or vehicle (10% cyclodextrin) by oral gavage. Caliper measurements were obtained during the dosing period and at least two weeks following treatment. Mice were euthanized if body weight loss exceeded 20% or if tumor volume increased to greater than 3000 mm^3.

LN229 MGMT-/MMR- cells = assay: Short-term cell viability assay; type: cell-based, human; settings: Homo sapiens, LN-229
[2] = tested on: LN229 MGMT+/-, MMR+/- cells; assay: Clonogenic survival assay; type: cell-based, human
Procedure: Clonogenic Cell Survival Assay. Cells were trypsinized, washed, counted, and diluted in a medium containing various concentrations of drug. They were then immediately seeded in six-well plates in triplicate at three-fold dilutions, ranging from 9000 to 37 cells per well. Depending on colony size, these plates were kept in the incubator for 10 to 14 days. After incubation, colonies were washed in phosphate-buffered saline (PBS), stained with crystal violet, counted, and quantified.

[3] = tested on: γH2AX, 53BP1 and pRPA foci in LN229 MGMT+/-, MMR+/- cells; assay: Immunofluorescence foci assays; type: cell-based, human; settings: 20 µM
Procedure: Immunofluorescence Foci Assays. High-throughput immunofluorescence foci assays were performed at the Yale Center for Molecular Discovery (YCMD). Cells were seeded at 2000 cells/well in black polystyrene flat bottom 384-well plates (Greiner Bio-One) and allowed to adhere overnight. Compound addition was performed utilizing a Labcyte Echo 550 liquid handler (Beckman Coulter), with 6 replicates per test condition and 12 replicates per control condition. Following drug incubation, cells were fixed and stained for phospho-SER139-H2AX (yH2AX), 53BP1, or phospho-SER33-RPA2 (pRPA) as follows.
γH2AX protocol: Cells were fixed with 4% paraformaldehyde in 1X PBS for 15 min, washed twice with 1X PBS, incubated in extraction buffer (0.5% Triton X-100 in 1X PBS) for 10 min, washed twice with 1X PBS, and incubated in blocking buffer (Blocker Casein in PBS, Thermo Scientific + 5% goat serum, Life Technologies) for 1 h. Mouse anti-phospho-histone H2A.X (Ser139) antibody (clone JBW301, Millipore, 05-636) was added 1/1000 in blocking buffer at 4° C. overnight. After washing with 1X PBS, cells were incubated with goat anti-mouse IgG (H+L) highly cross-adsorbed secondary antibody, Alexa Fluor 647 (Invitrogen, A-21236) 1/500 and with 1 µg/mL Hoechst nucleic acid dye in blocking buffer for 2 h, and then washed with 1X PBS. […]

## NC(=O)c1ncn2c(=O)n(CCF)nnc12 [KL-50]
[1]
  growth of large tumors: potently suppressed the growth
LN229 MGMT-/MMR- cells
  IC50: ~20 µM
[2]; LN229 MGMT+ cells
  clonogenic survival, MGMT+ cells: minimal toxicity to MGMT+ cells at doses up to at least 200 µM
[2]; LN229 MGMT- cells, MMR+/-
  clonogenic survival, MGMT- cells: robust antitumor activity in MGMT- cells, independent of MMR status
[3]; 2 to 48 h
  γH2AX, 53BP1, pRPA foci formation: maximal foci response at 48 h, specifically in MGMT- cells and irrespective of MMR status
[3]; 48 h
  DDR foci across cell cycle phases: foci formation primarily in the S- and G2-phases
